# Key:
# Assay in all cases: relative viability (nuclei count vs DMSO), 5 days (fraction); higher = more cells survive
# [1] = compound: CC1=NN=C(O1)C2=NN=C(C=C2)N3CCC(CC3)OC4=C(C=CC(=C4)F)Cl + COc1cc2c(Oc3ccc(NC(=O)C4(C(=O)Nc5ccc(F)cc5)CC4)cc3F)ccnc2cc1OCCCN1CCOCC1 [Foretinib] (partner 0.25 µM)
# How it was run: (§1)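 Each reported value is a median over duplicate plates. It expresses relative viability: treated-well nuclei count divided by vehicle-well nuclei count. Lung cancer cell lines in 1536-well plates were dosed by pin tool a day after seeding, alone with one drug or with a fixed anchor-drug dose plus five library-drug doses (not always all listed) in √10 steps, and nuclei were counted after 5 days.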
# [2] = compound: CC1=NN=C(O1)C2=NN=C(C=C2)N3CCC(CC3)OC4=C(C=CC(=C4)F)Cl + CS(=O)(=O)N1CCN(Cc2cc3nc(-c4cccc5[nH]ncc45)nc(N4CCOCC4)c3s2)CC1 [Pictilisib] (partner 1 µM)
# How it was run: as §1
# [3] = compound: CC(C)C[C@@H](C(=O)N[C@H](C(=O)OC1CCCC1)c1ccccc1)[C@H](O)C(=O)NO [Tosedostat]
# How it was run: (§2)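 Five library-drug doses, separated by factors of √10, were pinned into 1536-well plates holding lung cancer cell lines after an overnight stay at 37 °C. Cells were fixed, permeabilised and Hoechst-stained in one step after 5 days without medium change, then imaged at 4×. Viability compares treated-well with vehicle-well nuclei, counted in MetaXpress, as a median across plates. Passing plates had control CV below 25% and at least one doubling.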
# [4] = compound: CC1=NN=C(O1)C2=NN=C(C=C2)N3CCC(CC3)OC4=C(C=CC(=C4)F)Cl
# How it was run: as §2
cell line,measurement,setting,value
UMC-11,relative viability,[1]; first compound 0.253 µM,0.539
same,relative viability,[1]; first compound 0.8 µM,0.57
same,relative viability,[1]; first compound 2.53 µM,0.543
same,relative viability,[1]; first compound 8 µM,0.501
same,relative viability,[2]; first compound 0.253 µM,0.723
same,relative viability,[2]; first compound 0.8 µM,0.65
same,relative viability,[2]; first compound 2.53 µM,0.797
same,relative viability,[2]; first compound 8 µM,0.684
same,relative viability,[3]; 0.02 µM,1.1
same,relative viability,[3]; 0.06325 µM,0.994
same,relative viability,[3]; 0.2 µM,1.03
same,relative viability,[3]; 0.6325 µM,1.04
same,relative viability,[3]; 2 µM,1.05
same,relative viability,[4]; 0.253 µM,0.634
same,relative viability,[4]; 0.8 µM,0.641
same,relative viability,[4]; 2.53 µM,0.76
same,relative viability,[4]; 8 µM,0.594

# — the supplement of paper PMC10307832
